According to ChEMBL document CHEMBL3259572, “Euodenine A: a small-molecule agonist of human TLR4” (J Med Chem, 2014):
pEC50: −log10 of the molar value. Activity calls are given as the source filed them. No cut-off for these calls is given here.

Experiments:
Format in all cases: cell-based
PBMC = assay: Cytotoxicity against PHA-stimulated human PBMC assessed as reduction in cell viability at 20 uM by WST-1 cell proliferation assay
[1] = Cytotoxicity against PHA-stimulated human PBMC assessed as reduction in cell viability at 50 uM by WST-1 cell proliferation assay
Toll-like receptor 4 [2] = biological target: T1, Toll-like receptor 4 (Homo sapiens, UniProt O00206); assay: Intrinsic activity at human recombinant TLR4 expressed in HEK293 cells by SEAP reporter assay relative to LPS
T1 sequence (O00206 whole entry): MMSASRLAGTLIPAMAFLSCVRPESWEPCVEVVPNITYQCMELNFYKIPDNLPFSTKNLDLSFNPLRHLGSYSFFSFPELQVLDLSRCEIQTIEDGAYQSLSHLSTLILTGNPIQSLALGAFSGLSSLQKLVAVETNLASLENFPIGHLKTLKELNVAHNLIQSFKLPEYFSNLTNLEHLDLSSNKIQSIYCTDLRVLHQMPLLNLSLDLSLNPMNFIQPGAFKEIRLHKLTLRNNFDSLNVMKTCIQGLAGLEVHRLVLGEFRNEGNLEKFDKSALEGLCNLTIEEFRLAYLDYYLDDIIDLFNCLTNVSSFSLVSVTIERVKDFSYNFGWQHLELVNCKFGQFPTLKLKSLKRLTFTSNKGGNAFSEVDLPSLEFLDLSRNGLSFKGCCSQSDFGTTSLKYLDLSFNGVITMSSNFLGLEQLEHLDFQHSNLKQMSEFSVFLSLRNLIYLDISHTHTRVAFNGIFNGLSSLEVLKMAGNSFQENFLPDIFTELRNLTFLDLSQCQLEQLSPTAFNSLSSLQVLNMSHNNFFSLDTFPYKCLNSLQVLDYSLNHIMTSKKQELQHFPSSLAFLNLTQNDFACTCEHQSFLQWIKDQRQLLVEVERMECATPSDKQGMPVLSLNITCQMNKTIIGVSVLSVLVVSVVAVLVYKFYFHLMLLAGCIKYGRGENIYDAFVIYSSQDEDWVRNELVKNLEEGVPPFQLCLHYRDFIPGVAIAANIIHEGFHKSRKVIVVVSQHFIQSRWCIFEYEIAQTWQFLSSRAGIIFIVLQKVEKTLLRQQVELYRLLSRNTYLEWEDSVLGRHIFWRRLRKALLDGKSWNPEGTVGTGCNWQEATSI

Toll-like receptor 4 [3] = biological target: T1, Toll-like receptor 4; assay: Agonist activity at human recombinant TLR4 expressed in HEK293 cells by SEAP reporter assay
Toll-like receptor 4 [4] = biological target: T1, Toll-like receptor 4; assay: Agonist activity at human recombinant TLR4 expressed in HEK293 cells at 333 uM by SEAP reporter assay
Toll-like receptor 4 [5] = biological target: T1, Toll-like receptor 4; assay: Agonist activity at human recombinant TLR4 expressed in HEK293 cells at 60 uM by SEAP reporter assay
Toll-like receptor 4 [6] = biological target: T1, Toll-like receptor 4; assay: Agonist activity at human recombinant TLR4 expressed in HEK293 cells at 300 uM by SEAP reporter assay
Toll-like receptor 4 [7] = biological target: T1, Toll-like receptor 4; assay: Agonist activity at human recombinant TLR4 expressed in HEK293 cells at 25 uM by SEAP reporter assay
Toll-like receptor 4 [8] = biological target: T1, Toll-like receptor 4; assay: Agonist activity at human recombinant TLR4 expressed in HEK293 cells at 30 uM by SEAP reporter assay
Toll-like receptor 4 [9] = biological target: T1, Toll-like receptor 4; assay: Agonist activity at human recombinant TLR4 expressed in HEK293 cells at 71.5 uM by SEAP reporter assay

Row | Intrinsic activity (Toll-like receptor 4 [2]) | pEC50 (Toll-like receptor 4 [3]) | Structure (SMILES) | further results
1 |  |  | COC[C@@H]1[C@@H](c2ccc(OC)c(OC)c2)[C@H]2c3c(c4ccccc4n(C)c3=O)OC(C)(C)[C@@H]12 | Activity (PBMC): Non-toxic; inhibition at 50 µM [1]: 30%
2 | 0.19 | 5.41 | COc1ccc([C@H]2[C@H]3c4c(c5ccccc5[nH]c4=O)OC(C)(C)[C@H]3[C@@H]2C2CC2)cc1OCCCN1CCOCC1 | 
3 | 0.29 | 5.51 | CC[C@@H]1[C@@H](c2ccc(OC)c(OC)c2)[C@H]2c3c(c4cc(C)ccc4n(C)c3=O)OC(C)(C)[C@@H]12 | 
4 | 0.3 | 5.51 | CC[C@@H]1[C@@H](c2cc(OC)c(OC)c(OC)c2)[C@H]2c3c(c4cc(C)ccc4n(C)c3=O)OC(C)(C)[C@@H]12 | 
5 | 0.7 | 5.51 | CCC[C@]1(c2cc(OC)cc(OC)c2)O[C@H]2c3c(c4ccccc4[nH]c3=O)OC(C)(C)[C@H]2O1 | 
6 | 1.18 | 6.10 | COc1cc([C@H]2[C@H]3c4c(c5ccccc5[nH]c4=O)OC(C)(C)[C@H]3[C@@H]2C(C)C)cc(OC)c1OC | 
7 | 0.9 | 6.41 | COc1ccc([C@H]2[C@H]3c4c(c5ccccc5[nH]c4=O)OC(C)(C)[C@H]3[C@@H]2C2CCCC2)cc1OC | 
8 | 0.75 | 6.20 | COc1ccc([C@H]2[C@H]3c4c(c5ccccc5[nH]c4=O)OC(C)(C)[C@H]3[C@@H]2C2CC2)cc1OC | 
9 |  |  | CCOC(=O)[C@@H]1[C@@H](c2ccc(Br)cc2)[C@H]2c3c(c4ccccc4[nH]c3=O)OC(C)(C)[C@@H]12 | Activity (Toll-like receptor 4 [4]): inactive
10 | 0.47 | 5.70 | COc1ccc([C@H]2[C@H]3c4c(c5ccccc5[nH]c4=O)OC(C)(C)[C@H]3[C@@H]2C(C)C)cc1Cl | 
11 | 0.69 | 5.51 | COc1ccc([C@@H]2[C@@H](C)[C@H]3[C@@H]2c2c(c4ccccc4[nH]c2=O)OC3(C)C)cc1OC | 
12 | 1.01 | 5.92 | CCCC[C@@H]1[C@@H](c2ccc(OC)c(OC)c2)[C@H]2c3c(c4ccccc4[nH]c3=O)OC(C)(C)[C@@H]12 | 
13 | 0.29 | 5.20 | COc1ccc([C@H]2[C@H]3c4c(c5ccccc5[nH]c4=O)OC(C)(C)[C@H]3[C@@H]2C(C)C)cc1OC(=O)CCC(=O)O | 
14 |  |  | CCC[C@]1(c2cc(OC)c(OC)c(OC)c2)O[C@H]2c3c(c4ccccc4[nH]c3=O)OC(C)(C)[C@H]2O1 | Activity (Toll-like receptor 4 [5]): inactive
15 |  | < 5.00 | COc1ccc([C@@H]2[C@@H](C)[C@H]3[C@@H]2c2c(c4ccccc4[nH]c2=O)OC3(C)C)cc1 | 
16 | 0.2 | 4.80 | CCC[C@]1(c2ccc(OC)c(OC)c2)O[C@H]2c3c(c4ccccc4[nH]c3=O)OC(C)(C)[C@H]2O1 | 
17 | 0.69 | 5.70 | CCCC[C@@H]1[C@@H](c2cc(OC)c(OC)c(OC)c2)[C@H]2c3c(c4ccccc4[nH]c3=O)OC(C)(C)[C@@H]12 | 
18 | 0.46 | 5.51 | COc1cc(OC)cc([C@@H]2[C@@H](C)[C@H]3[C@@H]2c2c(c4ccccc4[nH]c2=O)OC3(C)C)c1 | 
19 | 0.88 | 6.10 | COc1ccc([C@H]2[C@H]3c4c(c5ccccc5[nH]c4=O)OC(C)(C)[C@H]3[C@@H]2C2CC2)cc1OCCCO | 
20 | 1.01 | 5.92 | CC[C@@H]1[C@@H](c2ccc(OC)c(OC)c2)[C@H]2c3c(c4ccccc4[nH]c3=O)OC(C)(C)[C@@H]12 | 
21 |  | < 5.00 | COc1ccc2[nH]c(=O)c3c(c2c1)OC(C)(C)[C@H]1[C@H](C)[C@@H](c2cc(OC)c(OC)c(OC)c2)[C@@H]31 | 
22 | 0.2 | 5.70 | COc1ccc([C@H]2[C@H]3c4c(c5ccccc5[nH]c4=O)OC(C)(C)[C@H]3[C@@H]2C(C)C)cc1CCl | 
23 |  | < 5.00 | COc1cc([C@@H]2[C@@H](C)[C@@H]3C(C)Oc4c(c(=O)[nH]c5ccccc45)[C@H]23)cc(OC)c1OC (single isomer, unassigned) | 
24 | 0.81 | 6.10 | COc1cc([C@H]2[C@H]3c4c(c5ccccc5n(C)c4=O)OC(C)(C)[C@H]3[C@@H]2C2CC2)cc(OC)c1OC | 
25 | 0.64 | 5.60 | COc1ccc([C@@H]2[C@@H](C)[C@H]3[C@@H]2c2c(c4ccccc4n(C)c2=O)OC3(C)C)cc1OC | 

Row | Intrinsic activity (Toll-like receptor 4 [2]) | pEC50 (Toll-like receptor 4 [3]) | Structure (SMILES) | further results
26 | 0.61 | 5.70 | CC[C@@H]1[C@@H](c2ccc(OC)c(OC)c2)[C@H]2c3c(c4ccccc4n(C)c3=O)OC(C)(C)[C@@H]12 | 
27 | 0.44 | 5.51 | COc1ccc([C@@H]2[C@@H](C)[C@H]3[C@@H]2c2c(c4ccccc4[nH]c2=O)OC3(C)C)c(Cl)c1OC | 
28 |  | < 5.00 | COc1ccc([C@H]2[C@H]3c4c(c5ccccc5[nH]c4=O)OC(C)(C)[C@H]3[C@@H]2C(C)C)cc1OC(C)=O | 
29 | 0.41 | 5.10 | COc1cc([C@H]2[C@H]3c4c(c5cc(C)ccc5n(C)c4=O)OC(C)(C)[C@H]3[C@@H]2C(C)C)cc(OC)c1OC | 
30 | 0.9 | 6.00 | COc1ccc([C@H]2[C@H]3c4c(c5ccccc5[nH]c4=O)OC(C)(C)[C@H]3[C@@H]2C(C)C)cc1OC | 
31 |  |  | COc1cc([C@@H]2[C@@H](C)[C@H]3[C@@H]2c2c(c4ccccc4[nH]c2=O)OC3(C)C)ccc1OCc1ccccc1 | Activity (Toll-like receptor 4 [6]): inactive
32 | 0.53 | 5.51 | COc1ccc([C@H]2[C@H]3c4c(c5ccccc5n(C)c4=O)OC(C)(C)[C@H]3[C@@H]2C(C)C)cc1Cl | 
33 | 0.36 | 5.51 | CC[C@@H]1[C@@H](c2ccc(OC)c(F)c2)[C@H]2c3c(c4ccccc4n(C)c3=O)OC(C)(C)[C@@H]12 | 
34 |  | < 5.00 | COc1cc([C@@H]2[C@@H](C)[C@H]3[C@@H]2c2c(c4ccccc4[nH]c2=O)OC3(C)C)ccc1O | 
35 |  | < 5.00 | COc1ccc2[nH]c(=O)c3c(c2c1)OC(C)(C)[C@@H]1[C@H]3[C@H](c2ccc(OC)c(OC)c2)[C@H]1C(C)C | 
36 | 0.31 | 5.51 | COc1ccc([C@H]2[C@H]3c4c(c5ccccc5n(C)c4=O)OC(C)(C)[C@H]3[C@@H]2C(C)C)cc1OC(C)=O | 
37 | 1.05 | 6.10 | CC[C@@H]1[C@@H](c2cc(OC)c(OC)c(OC)c2)[C@H]2c3c(c4ccccc4[nH]c3=O)OC(C)(C)[C@@H]12 | 
38 |  |  | COC(=O)[C@@H]1C(c2cc(OC)c(OC)c(OC)c2)[C@H]2c3c(c4ccccc4[nH]c3=O)OC(C)(C)C12 (single isomer, unassigned) | Activity (Toll-like receptor 4 [7]): inactive
39 | 0.19 | 5.41 | CCOc1ccc([C@H]2[C@H]3c4c(c5ccccc5[nH]c4=O)OC(C)(C)[C@H]3[C@@H]2C(C)C)cc1OC | 
40 | 0.1 | 5.30 | COc1cc(C2[C@@H](COC(C)=O)C3[C@@H]2c2c(c4ccccc4[nH]c2=O)OC3(C)C)cc(OC)c1OC (single isomer, unassigned) | 
41 | 0.69 | 5.60 | COc1cc([C@H]2[C@H]3c4c(c5ccccc5n(C)c4=O)OC(C)(C)[C@H]3[C@@H]2C2CCCC2)cc(OC)c1OC | 
42 | 0.28 | 5.41 | COc1ccc([C@@H]2[C@@H](C)[C@H]3[C@@H]2c2c(c4ccccc4[nH]c2=O)OC3(C)C)cc1Br | 
43 |  |  | COc1cc([C@@H]2C[C@H]3[C@@H]2c2c(c4ccccc4[nH]c2=O)OC3(C)C)cc(OC)c1OC | Activity (Toll-like receptor 4 [8]): inactive
44 | 0.46 | 6.30 | COc1ccc([C@H]2[C@H]3c4c(c5ccccc5[nH]c4=O)OC(C)(C)[C@H]3[C@@H]2C(C)C)cc1OCCO | 
45 |  | < 5.00 | COc1ccc([C@@H]2[C@@H](C)[C@H]3[C@@H]2c2c(c4ccccc4[nH]c2=O)OC3(C)C)c(OC)c1OC | 
46 |  |  | C[C@@H]1[C@@H](c2ccccc2)[C@H]2c3c(c4ccccc4[nH]c3=O)OC(C)(C)[C@@H]12 | Activity (Toll-like receptor 4 [9]): inactive
47 |  |  | COc1cc(C2[C@@H](COC(C)C)C3[C@@H]2c2c(c4ccccc4[nH]c2=O)OC3(C)C)cc(OC)c1OC (single isomer, unassigned) | Activity (Toll-like receptor 4 [6]): inactive
48 | 0.82 | 6.20 | COc1cc([C@H]2[C@H]3c4c(c5ccccc5[nH]c4=O)OC(C)(C)[C@H]3[C@@H]2C2CC2)cc(OC)c1OC | 
49 | 0.63 | 6.20 | COc1cc([C@H]2[C@H]3c4c(c5ccccc5[nH]c4=O)OC(C)(C)[C@H]3[C@@H]2C2CCCC2)cc(OC)c1OC | 

Row | Structure (SMILES) | Intrinsic activity (Toll-like receptor 4 [2]) | pEC50 (Toll-like receptor 4 [3]) | further results
50 | COc1ccc([C@@H]2[C@@H](C(C)=O)[C@H]3[C@@H]2c2c(c4ccccc4[nH]c2=O)OC3(C)C)cc1OC | 0.3 | 5.00 | 
51 | COc1ccc([C@@H]2[C@@H](C(=O)C3CC3)[C@H]3[C@@H]2c2c(c4ccccc4[nH]c2=O)OC3(C)C)cc1OC | 0.62 | 5.10 | 
